Tested on: Puccinia recondita
Assay: Curative activity against Puccinia recondita on wheat (wheat leaf rust)
Type: in vivo, Puccinia recondita on wheat seedlings of the variety Kanzler
Details: sprayed 1 day after inoculation, rated after 7 days
Procedure: The active ingredients, separately or together, are formulated as a 10% emulsion in a mixture of 63% by weight of cyclohexanone and 27% by weight of emulsifier, and diluted with water to the desired concentration.
Evaluation is carried out by determining the infected leaf areas in percent. These percentages are converted into efficacies. The efficacy (w) is calculated as follows using Abbot's formula: […]
α corresponds to the fungal infection of the treated plants in % and β corresponds to the fungal infection of the untreated (control) plants in % An efficacy of 0 means that the infection level of the treated plants corresponds to that of the untreated control plants; an efficacy of 100 means that the treated plants were not infected.
The expected efficacies of the mixtures of the active ingredients were determined using Colby's formula [R. S. Colby, Weeds 15, 20-22 (1967)] and compared with the observed efficacies.
Colby's formula: E=x+y−x·y/100
E expected efficacy, expressed in % of the untreated control, when using the mixture of the active ingredients A and B at the concentrations a and b x efficacy, expressed in % of the untreated control, when using active ingredient A at a concentration of a y efficacy, expressed in % of the untreated control, when using active ingredient B at a concentration of b Leaves of potted wheat seedlings of the variety “Kanzler” were dusted with spores of leaf rust (Puccinia recondite). Thereafter, the pots were kept for 24 hours in a chamber of high atmospheric humidity (90 to 95%) and 20 to 22° C. During this time, the spores germinated and the germinal tubes penetrated into the leaf tissue. The next day, the infected plants were sprayed to runoff point with an aqeuous formulation of active ingredient prepared from a stock solution consisting of 10% of active ingredient, 63% of cyclohexanone and 27% of emulsifier. After the spray coating had dried on, the test plants were cultivated in a greenhouse at from 20 to 22° C. and from 65 to 70% of relative atmospheric humidity for 7 days. Thereafter, the extent of rust fungus development on the leaves was determined.

[1] = 50 ppm active ingredient in the spray liquor
[2] = 100 ppm active ingredient in the spray liquor

## O=C(Nc1ccccc1-c1ccc(F)cc1)c1cccnc1Cl [Compound I.1]
[1]
  Efficacy in % of the untreated control: 0%
[2]
  Efficacy in % of the untreated control: 0%
200 ppm active ingredient in the spray liquor
  Efficacy in % of the untreated control: 0%

## O=C(Nc1ccccc1-c1ccc(Cl)cc1)c1cccnc1Cl [Compound I.2]
[1]
  Efficacy in % of the untreated control: 0%
[2]
  Efficacy in % of the untreated control: 30%

## OC(c1ccc(Cl)cc1)(c1cncnc1)c1ccccc1Cl (racemic) [Compound II, (±)-(2-Chlorophenyl)(4-chlorophenyl)(pyrimidin-5-yl)methanol, reference compound]
10 ppm active ingredient in the spray liquor
  Efficacy in % of the untreated control: 10%
20 ppm active ingredient in the spray liquor
  Efficacy in % of the untreated control: 20%

From patent publication US6372748B1, “Fungicide mixtures based on pyridine amides and fenarimol” (BASF Aktiengesellschaft, priority 1997, dated 2002)
